We go through 23 molecules from US9670204B2, “Compounds and pharmaceutical compositions thereof for the treatment of inflammatory disorders” (Galapagos NV, priority 2013, dated 2017).

The target of assay [1] is T1, hENPP2 (UniProtKB/SwissProt Q13822) (Homo sapiens (Human), UniProt Q13822). Briefly: hENPP2 biochemical assay, LPC as substrate. Particulars: LPC (palmitoyl 16:0) as substrate. The essentials: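 Human ENPP2 in 50 mM Tris-HCl pH 8.5, 500 mM NaCl, 5 mM KCl, 10 mM CaCl2, 0.1% fatty-acid-free BSA, reacted 30 min at 37 °C with LPC 16:0 (150 µM solution added 1:1). Released choline measured via choline oxidase/peroxidase/TOOS/4-aminoantipyrine quinoneimine dye at 555 nm; IC50 reported.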

The target in assay [2] is T1, hENPP2. Briefly: fluorescent hENPP2 biochemical assay, FS-3 as substrate. The following applies: read-out: FS3-IC50. On the procedure: Compound IC50 values are determined in a fluorescent hENPP2 (UniProtKB/SwissProt Sequence ref Q13822) biochemical assay using the fluorogenic autotaxin substrate FS-3 as substrate. FS-3 is a doubly labeled analog of LPC wherein the fluorophore is quenched through intramolecular energy transfer. Without hENPP2, the emission of the probe is quenched. If the substrate is hydrolyzed by hENPP2, the emission of the probe is not quenched anymore resulting in a fluorescence increase.
The enzyme is diluted in 50 mM Tris-HCl pH 8.0, 250 mM NaCl, 5 mM KCl, 1 mM MgCl2, 1 mM CaCl2, 0.1% fatty acid free BSA in a total volume of 20 μL. Enzyme mixture is added to compounds and the resulting mixture is incubated for 30 min at room temperature under shaking. The reaction is started by the addition of 20 μL of 0.75 μM FS-3 diluted in the same buffer as described above and the mixture is incubated at 30° C. for 30 min. Fluorescence is read on the Envision (Excitation 485 nm, emission 520 nm).

As usually defined, the IC50 is the concentration that inhibits the measured activity by half. Turning to `CCc1nc2ccc(N3CCN(C(=O)CCCO)CC3)cn2c1N(C)c1nc(-c2ccc(F)cc2)cs1` [Compound 52, 1-(4-(2-ethyl-3-((4-(4-fluorophenyl)thiazol-2-yl)(methyl)amino)imidazo[1,2-a]pyridin-6-yl)piperazin-1-yl)-4-hydroxybutan-1-one], the IC50 at hENPP2 [1] was more than 1000 nM; at hENPP2 [2], 0.01 to 100 nM.
Turning to `CCc1nc2ccc(C3CCN(S(C)(=O)=O)CC3)cn2c1N(C)c1nc(-c2ccc(F)cc2)c(CC#N)s1` [Compound 186, 2-(2-((2-ethyl-6-(1-(methylsulfonyl)piperidin-4-yl)imidazo[1,2-a]pyridin-3-yl)(methyl)amino)-4-(4-fluorophenyl)thiazol-5-yl)acetonitrile], the IC50 was more than 1000 nM against hENPP2 [1] and 0.01 to 100 nM on hENPP2 [2].
For `CCc1nc2ccc(C3CCN(C(=O)CN4CC(F)C4)CC3)cn2c1N(C)c1nc(-c2ccc(F)cc2)cs1` [Compound 133, 1-(4-(2-ethyl-3-((4-(4-fluorophenyl)thiazol-2-yl)(methyl)amino)imidazo[1,2-a]pyridin-6-yl)piperidin-1-yl)-2-(3-fluoroazetidin-1-yl)ethanone], in that order: 100 to 500 nM and 0.01 to 100 nM.
The like results for `CCc1nc2ccc(N3CCN(C(=O)C(N)=O)CC3)cn2c1N(C)c1nc(-c2ccc(F)cc2)cs1` [Compound 204, 2-(4-(2-ethyl-3-((4-(4-fluorophenyl)thiazol-2-yl)(methyl)amino)imidazo[1,2-a]pyridin-6-yl)piperazin-1-yl)-2-oxoacetamide] were, in that order, more than 1000 nM and 0.01 to 100 nM.
For `CCc1nc2ccc(C3CCN(CC(=O)N4CC[C@H](C#N)C4)CC3)cn2c1N(C)c1nc(-c2ccc(F)cc2)cs1` [Compound 116, (S)-1-(2-(4-(2-ethyl-3-((4-(4-fluorophenyl)thiazol-2-yl)(methyl)amino)imidazol[1,2-a]pyridin-6-yl)piperidin-1-yl)acetoyl)pyrrolidine-3-carbonitrile], in that order: 100 to 500 nM and 0.01 to 100 nM.
For the molecule `CCc1nc2ccc(N3CCN(CC#N)CC3)cn2c1N(C)c1nc(-c2ccc(F)cc2)cs1` [Compound 38, 2-(4-(2-ethyl-3-((4-(4-fluorophenyl)thiazol-2-yl)(methyl)amino)imidazo[1,2-a]pyridin-6-yl)piperazin-1-yl)acetonitrile], the values for the concentration for half-maximal inhibition (IC50) against hENPP2 [1] and at hENPP2 [2] were more than 1000 nM and 0.01 to 100 nM, respectively.
Turning to `CCc1nc2ccc(C3=CCN(S(=O)(=O)CCCCl)CC3)cn2c1N(C)c1nc(-c2ccc(F)cc2)cs1` [Compound 233, N-(6-(1-(3-chloropropylsulfonyl)-1,2,3,6-tetrahydropyridin-4-yl)-2-ethylimidazo[1,2-a]pyridin-3-yl)-4-(4-fluorophenyl)-N-methylthiazol-2-amine], the LPC-IC50 result on hENPP2 [1] was “not active”. In addition, the IC50 on hENPP2 [2] was 0.01 to 100 nM.
On to `CCc1nc2ccc(C3CCN(S(C)(=O)=O)CC3)cn2c1N(C)c1nc(-c2ccc(C(C)(C)C)cc2)cs1` [Compound 81, 4-(4-tert-butylphenyl)-N-(2-ethyl-6-(1-(methylsulfonyl)piperidin-4-yl)imidazo [1,2-a]pyridin-3-yl)-N-methylthiazol-2-amine], for which the IC50 against hENPP2 [1] is more than 1000 nM; at hENPP2 [2], 0.01 to 100 nM.
Take `CCc1nc2ccc(N3CCN(CC(=O)N(C)C)CC3)cn2c1N(C)c1nc(-c2ccc(F)cc2)cs1` [Compound 35, 2-(4-(2-ethyl-3-((4-(4-fluorophenyl)thiazol-2-yl)(methyl)amino)imidazo[1,2-a]pyridin-6-yl)piperazin-1-yl)-N,N-dimethylacetamide]: the IC50 against hENPP2 [1] is 100 to 500 nM; at hENPP2 [2], 0.01 to 100 nM.
Take `CCOC(=O)CN1CCC(c2ccc3nc(CC)c(N(C)c4nc(-c5ccc(F)cc5)cs4)n3c2)CC1` [Compound 109, ethyl 2-(4-(2-ethyl-3-((4-(4-fluorophenyl)thiazol-2-yl)(methyl)amino)imidazo[1,2-a]pyridin-6-yl)piperidin-1-yl)acetate]: the IC50 lay within 100 to 500 nM at hENPP2 [1] and 0.01 to 100 nM on hENPP2 [2].
The like results for `CCc1nc2ccc(C3=CCN(C(=O)OC(C)(C)C)CC3)cn2c1N(C)c1nc(-c2ccc(F)cc2)cs1` [Compound 214, tert-butyl 4-(2-ethyl-3-((4-(4-fluorophenyl)thiazol-2-yl)(methyl)amino)imidazo[1,2-a]pyridin-6-yl)-5,6-dihydropyridine-1(2H)-carboxylate] were, in that order, more than 1000 nM and 0.01 to 100 nM.
The like results for `CCc1nc2ccc(C3=CCN(S(C)(=O)=O)CC3)cn2c1N(C)c1nc(-c2ccc(Cl)cc2)cs1` [Compound 209, 4-(4-chlorophenyl)-N-(2-ethyl-6-(1-(methylsulfonyl)-1,2,3,6-tetrahydropyridin-4-yl)imidazo[1,2-a]pyridin-3-yl)-N-methylthiazol-2-amine] were, in that order, more than 1000 nM and 0.01 to 100 nM.
For `CCc1nc2ccc(N3CCN(C(=O)C(C)=O)CC3)cn2c1N(C)c1nc(-c2ccc(F)cc2)cs1` [Compound 200, 1-(4-(2-ethyl-3-((4-(4-fluorophenyl)thiazol-2-yl)(methyl)amino)imidazo[1,2-a]pyridin-6-yl)piperazin-1-yl)propane-1,2-dione], in that order: more than 1000 nM and 0.01 to 100 nM.
`CCc1nc2ccc(N3CCN(S(C)(=O)=O)CC3=O)cn2c1N(C)c1nc(-c2ccc(F)cc2)cs1` [Compound 65, 1-(2-ethyl-3-((4-(4-fluorophenyl)thiazol-2-yl)(methyl)amino)imidazo[1,2-a]pyridin-6-yl)-4-(methylsulfonyl) piperazin-2-one]: the IC50 against hENPP2 [1] is more than 1000 nM; on hENPP2 [2] it was 0.01 to 100 nM.
For `CCc1nc2ccc(N3CC(NC(=O)CN4CC(O)C4)C3)cn2c1N(C)c1nc(-c2ccc(F)cc2)cs1` [Compound 179, N-(1-(2-ethyl-3-((4-(4-fluorophenyl)thiazol-2-yl)(methyl)amino)imidazo[1,2-a]pyridin-6-yl)azetidin-3-yl)-2-(3-hydroxyazetidin-1-yl)acetamide], in that order: more than 1000 nM and 0.01 to 100 nM.
The like results for `CCc1nc2ccc(N3CCN(C(=O)CO)CC3)cn2c1N(C)c1nc(-c2ccc(F)cc2)cs1` [Compound 50, 1-(4-(2-ethyl-3-((4-(4-fluorophenyl)thiazol-2-yl)(methyl)amino)imidazo[1,2-a]pyridin-6-yl)piperazin-1-yl)-2-hydroxyethanone] were, in that order, 500 to 1000 nM and 0.01 to 100 nM.
The like results for `CCc1nc2ccc(N3CCN(CC(=O)N(C)C)CC3)cn2c1N(C)c1nc(-c2ccc(F)cc2C#N)cs1` [Compound 168, 2-(4-(3-((4-(2-cyano-4-fluorophenyl)thiazol-2-yl)(methyl)amino)-2-ethylimidazo[1,2-a]pyridin-6-yl)piperazin-1-yl)-N,N-dimethylacetamide] were, in that order, 0.01 to 100 nM and 0.01 to 100 nM.
For `CCc1nc2ccc(C3CCN(S(C)(=O)=O)CC3)cn2c1N(C)c1nc(-c2ccc(F)cc2Cl)cs1` [Compound 99, 4-(2-chloro-4-fluorophenyl)-N-(2-ethyl-6-(1-(methylsulfonyl)piperidin-4-yl)imidazo [1,2-a]pyridin-3-yl)-N-methylthiazol-2-amine], the IC50 is more than 1000 nM on hENPP2 [1] and 0.01 to 100 nM at hENPP2 [2].
Regarding `CCc1nc2ccc(C3CCN(CC4COC(=O)O4)CC3)cn2c1N(C)c1nc(-c2ccc(F)cc2)cs1` (stereo not shown) [Compound 118, 4-((4-(2-ethyl-3-((4-(4-fluorophenyl)thiazol-2-yl)(methyl)amino)imidazo[1,2-a]pyridin-6-yl)piperidin-1-yl)methyl)-1,3-dioxolan-2-one], the IC50 at hENPP2 [1] lay in the range of 100 to 500 nM; on hENPP2 [2], 0.01 to 100 nM.
For `CCc1nc2ccc(C3=CCN(S(C)(=O)=O)CC3)cn2c1N(C)c1nc(-c2ccc(F)cc2)c(F)s1` [Compound 77, N-(2-ethyl-6-(1-(methylsulfonyl)-1,2,3,6-tetrahydropyridin-4-yl)imidazo[1,2-a]pyridin-3-yl)-5-fluoro-4-(4-fluorophenyl)-N-methylthiazol-2-amine], in that order: more than 1000 nM and 0.01 to 100 nM.
With `CCc1nc2ccc(C3CCN(S(=O)(=O)CCCOC(C)=O)CC3)cn2c1N(C)c1nc(-c2ccc(F)cc2)cs1` [Compound 93, 3-(4-(2-ethyl-3-((4-(4-fluorophenyl)thiazol-2-yl)(methyl)amino)imidazo[1,2-a]pyridin-6-yl)piperidin-1-ylsulfonyl)propyl acetate], the IC50 against hENPP2 [1] fell in the range of 100 to 500 nM; on hENPP2 [2], 0.01 to 100 nM.
The like results for `CCc1nc2ccc(C3CCN(S(C)(=O)=O)CC3)cn2c1N(C)c1nc(-c2ccc(F)cc2F)cs1` [Compound 100, 4-(2,4-difluorophenyl)-N-(2-ethyl-6-(1-(methylsulfonyl)piperidin-4-yl)imidazo [1,2-a]pyridin-3-yl)-N-methylthiazol-2-amine] were, in that order, more than 1000 nM and 0.01 to 100 nM.
On to `CCc1nc2ccc(N3CCN(C(=O)OC(C)(C)C)CC3)cn2c1N(C)c1nc(-c2ccc(Cl)cc2)ns1` [Compound 225, tert-butyl 4-(3-((3-(4-chlorophenyl)-1,2,4-thiadiazol-5-yl)(methyl)amino)-2-ethylimidazo[1,2-a]pyridin-6-yl) piperazine-1-carboxylate], for which the IC50 is more than 1000 nM against hENPP2 [1] and 0.01 to 100 nM on hENPP2 [2].
